Data on 27 molecules can be found in patent publication US9156796B2, “Benzoimidazole-carboxylic acid amide derivatives as APJ receptor modulators” (SANOFI, priority 2013, dated 2015).

The assay deals with T1, human apelin receptor (Homo sapiens, UniProt P35414).
T1 construct: expressed in transfected cells
T1 sequence (P35414 1-380): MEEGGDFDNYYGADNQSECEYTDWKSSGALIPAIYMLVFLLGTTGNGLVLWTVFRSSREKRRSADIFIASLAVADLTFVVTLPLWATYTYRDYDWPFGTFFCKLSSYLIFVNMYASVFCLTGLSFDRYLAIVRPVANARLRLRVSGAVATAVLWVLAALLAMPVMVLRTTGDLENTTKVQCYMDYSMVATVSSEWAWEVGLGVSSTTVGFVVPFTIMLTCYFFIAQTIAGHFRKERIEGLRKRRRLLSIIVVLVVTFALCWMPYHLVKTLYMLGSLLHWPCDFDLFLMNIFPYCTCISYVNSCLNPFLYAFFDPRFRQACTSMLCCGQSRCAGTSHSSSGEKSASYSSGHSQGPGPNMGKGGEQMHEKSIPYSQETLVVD
Nature of the assay: Determination of agonism on the human apelin receptor by a calcium fluorescence assay (FLIPR). The format is cell-based. As to conditions: HEK293 cells stably transfected with human apelin receptor and Giaq protein, Fluo-4 calcium fluorescence, read-out: EC50 (APJ agonism). In a few lines: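 HEK293 cells stably co-expressing human apelin receptor and promiscuous Giaq, loaded 1 h at 37 °C with Fluo-4 (4 μM) in probenecid-containing Hepes buffer, pH 7.4. Compounds, at least 7 concentrations in triplicate, added in FLIPR Tetra; peak calcium fluorescence normalized to 1 μM apelin-13 as 100% to derive EC50.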

pEC50: −log10 of the molar value.

As a reminder, the pEC50 is the negative decadic logarithm of the EC50, by convention in mol/L. As for `CCC(CC)n1c(Cc2cccs2)nc2cc(C(=O)N[C@@H](CC(C)C)C(=O)NCCCN3CCN(Cc4ccccc4)CC3)ccc21` [Example 341, 1-(1-Ethyl-propyl)-2-thiophen-2-ylmethyl-1H-benzoimidazole-5-carboxylic acid {(S)-1-[3-(4-benzyl-piperazin-1-yl)-propylcarbamoyl]-3-methyl-butyl}-amide], the negative logarithm of the EC50 (pEC50) was 6.04.

On to `CCC(CC)n1c(Cc2cccs2)nc2cc(C(=O)N[C@@H](CC(C)C)C(=O)N3CCC[C@H]3C(=O)O)ccc21` [Example 409, (S)-1-((S)-2-{[1-(1-Ethyl-propyl)-2-thiophen-2-ylmethyl-1H-benzoimidazole-5-carbonyl]-amino}-4-methyl-pentanoyl)-pyrrolidine-2-carboxylic acid], for which the negative logarithm of the EC50 (pEC50) was 6.31.

`CCC(CC)n1c(Cc2cccs2)nc2cc(C(=O)N[C@H](CC(=O)O)Cc3ccccc3)ccc21` [Example 100, (S)-3-{[1-(1-Ethyl-propyl)-2-thiophen-2-ylmethyl-1H-benzoimidazole-5-carbonyl]-amino}-4-phenyl-butyric acid]: the pEC50 is 5.23.

In the case of `CCC(CC)n1c(Cc2cccs2)nc2cc(C(=O)N[C@H](Cc3noc(-c4ccccc4)n3)CC(C)C)ccc21` [Example 474, 1-(1-Ethyl-propyl)-2-thiophen-2-ylmethyl-1H-benzoimidazole-5-carboxylic acid [(S)-3-methyl-1-(5-phenyl-[1,2,4]oxadiazol-3-ylmethyl)-butyl]-amide], the pEC50 was 4.46.

For the molecule `CCC(CC)n1c(Cc2cccs2)nc2cc(C(=O)N[C@@H](CC(C)C)C(=O)NCCSC)ccc21` [Example 258, 1-(1-Ethyl-propyl)-2-thiophen-2-ylmethyl-1H-benzoimidazole-5-carboxylic acid [(S)-3-methyl-1-(2-methylsulfanyl-ethylcarbamoyl)-butyl]-amide], the pEC50 is 5.87.

In the case of `CCC(CC)n1c(Cc2cccs2)nc2cc(C(=O)N[C@@H](CC(C)C)C(=O)NC3CCN(CCc4ccc(OC)cc4)CC3)ccc21` [Example 328, 1-(1-Ethyl-propyl)-2-thiophen-2-ylmethyl-1H-benzoimidazole-5-carboxylic acid ((S)-1-{1-[2-(4-methoxy-phenyl)-ethyl]-piperidin-4-ylcarbamoyl}-3-methyl-butyl)-amide], the pEC50 was 5.90.

With `C[C@@H]1CCCC[C@H]1n1c(Cc2cccs2)nc2cc(C(=O)NC(CC(=O)O)CC3CCCCC3)ccc21` (stereo partly drawn) [Example 51, 4-Cyclohexyl-3-{[1-((1R,2R)-2-methyl-cyclohexyl)-2-thiophen-2-ylmethyl-1H-benzoimidazole-5-carbonyl]-amino}-butyric acid], the pEC50 is 6.68.

For the molecule `CCC(CC)n1c(Cc2cccs2)nc2cc(C(=O)N[C@@H](CC(C)C)C(=O)N3CCC(N4CCC(C)CC4)CC3)ccc21` [Example 282, 1-(1-Ethyl-propyl)-2-thiophen-2-ylmethyl-1H-benzoimidazole-5-carboxylic acid [(S)-3-methyl-1-(4-methyl-[1,4′]bipiperidinyl-1′-carbonyl)-butyl]-amide], the pEC50 was 6.37.

For `CCC(CC)n1c(Cc2cccs2)nc2cc(C(=O)N[C@@H](CC(C)C)C(=O)NC3CCN(CC4CCCCC4)CC3)ccc21` [Example 344, 1-(1-Ethyl-propyl)-2-thiophen-2-ylmethyl-1H-benzoimidazole-5-carboxylic acid [(S)-1-(1-cyclohexylmethyl-piperidin-4-ylcarbamoyl)-3-methyl-butyl]-amide], the pEC50 was 5.77.

`CC(C)C[C@H](NC(=O)c1ccc2c(c1)nc(Cc1cccs1)n2C1CCCC1C)C(=O)O` (single isomer, unassigned) [Example 431]: the negative-log EC50 (pEC50) is 5.46.

Regarding `CCC(CC)n1c(Cc2cccs2)nc2cc(C(=O)N[C@@H](CC3CCC3)C(=O)O)ccc21` [Example 22, (S)-3-Cyclobutyl-2-{[1-(1-ethyl-propyl)-2-thiophen-2-ylmethyl-1H-benzoimidazole-5-carbonyl]-amino}-propionic acid], the pEC50 is 7.10.

For `CCC(CC)n1c(Cc2cccs2)nc2cc(C(=O)N[C@@H](CC(C)C)C(=O)N3CCC[C@@H]3COC)ccc21` [Example 365, 1-(1-Ethyl-propyl)-2-thiophen-2-ylmethyl-1H-benzoimidazole-5-carboxylic acid [(S)-1-((R)-2-methoxymethyl-pyrrolidine-1-carbonyl)-3-methyl-butyl]-amide], the pEC50 is 5.56.

As to `CCC(CC)n1c(Cc2cccs2)nc2cc(C(=O)N[C@@H](CC(C)C)C(=O)Nc3cccc(N4CCOCC4)c3)ccc21` [Example 333, 1-(1-Ethyl-propyl)-2-thiophen-2-ylmethyl-1H-benzoimidazole-5-carboxylic acid [(S)-3-methyl-1-(3-morpholin-4-yl-phenylcarbamoyl)-butyl]-amide], the pEC50 is 4.56.

With `CCC1CCCCC1n1c(Cc2cccs2)nc2cc(C(=O)N[C@@H](CC(C)C)C(=O)O)ccc21` (stereo partly drawn) [Example 93, (S)-2-{[1-(2-Ethyl-cyclohexyl)-2-thiophen-2-ylmethyl-1H-benzoimidazole-5-carbonyl]-amino}-4-methyl-pentanoic acid], the pEC50 is 6.54.

In the case of `CCC(CC)n1c(Cc2cccs2)nc2cc(C(=O)N[C@@H](CC(C)C)C(=O)N3CCN(Cc4ccccc4)CC3)ccc21` [Example 271, 1-(1-Ethyl-propyl)-2-thiophen-2-ylmethyl-1H-benzoimidazole-5-carboxylic acid [(S)-1-(4-benzyl-piperazine-1-carbonyl)-3-methyl-butyl]-amide], the pEC50 was 5.49.

With `CC(C)C[C@H](NC(=O)c1ccc2c(c1)nc(CC1CCCC1)n2CC(C)C)C(=O)O` [Example 128, (S)-2-[(2-Cyclopentylmethyl-1-isobutyl-1H-benzoimidazole-5-carbonyl)-amino]-4-methyl-pentanoic acid], the pEC50 is 5.00.

For the molecule `CCCC(CCO)NC(=O)c1ccc2c(c1)nc(Cc1cccs1)n2C(CC)CC` (single isomer, unassigned) [Example 470], the pEC50 is 6.63.

`CCC(CC)n1c(Cc2cccs2)nc2cc(C(=O)N[C@@H](CC(C)C)C(=O)NC3CCN(c4ccccc4)CC3)ccc21` [Example 317, 1-(1-Ethyl-propyl)-2-thiophen-2-ylmethyl-1H-benzoimidazole-5-carboxylic acid [(S)-3-methyl-1-(1-phenyl-piperidin-4-ylcarbamoyl)-butyl]-amide]: the pEC50 is 4.85.

As to `CCC(CC)n1c(Cc2cccs2)nc2cc(C(=O)N[C@H](Cc3noc(C4CC4)n3)CC(C)C)ccc21` [Example 475, 1-(1-Ethyl-propyl)-2-thiophen-2-ylmethyl-1H-benzoimidazole-5-carboxylic acid [(S)-1-(5-cyclopropyl-[1,2,4]oxadiazol-3-ylmethyl)-3-methyl-butyl]-amide], the pEC50 was 5.55.

Take `CCC[C@H](NC(=O)c1ccc2c(c1)nc(Cc1cccs1)n2[C@@H]1CCCC[C@H]1C)C(=O)O` [Example 91, (S)-2-{[1-((1R,2R)-2-Methyl-cyclohexyl)-2-thiophen-2-ylmethyl-1H-benzoimidazole-5-carbonyl]-amino}-pentanoic acid]: the pEC50 is 6.86.

For `CCC(CC)n1c(Cc2cccs2)nc2cc(C(=O)N[C@@H](CC(C)C)C(=O)NC(C)c3ccc(F)cc3)ccc21` (stereo partly drawn) [Example 246, 1-(1-Ethyl-propyl)-2-thiophen-2-ylmethyl-1H-benzoimidazole-5-carboxylic acid {(S)-1-[1-(4-fluoro-phenyl)-ethylcarbamoyl]-3-methyl-butyl}-amide], the pEC50 is 5.16.

Turning to `CCC(CC)n1c(Cc2cccs2)nc2cc(C(=O)N[C@H](CC(=O)O)CC(C)C)ccc21` [Example 107, (S)-3-{[1-(1-Ethyl-propyl)-2-thiophen-2-ylmethyl-1H-benzoimidazole-5-carbonyl]-amino}-5-methyl-hexanoic acid], the pEC50 was 7.33.

As for `CCC(CC)n1c(Cc2cccs2)nc2cc(C(=O)N[C@@H](CC(C)C)C(=O)Nc3cccc(N(C)C)c3)ccc21` [Example 316, 1-(1-Ethyl-propyl)-2-thiophen-2-ylmethyl-1H-benzoimidazole-5-carboxylic acid [(S)-1-(3-dimethylamino-phenylcarbamoyl)-3-methyl-butyl]-amide], the pEC50 is 4.66.

Regarding `CC[C@H](C)[C@H](NC(=O)c1ccc2c(c1)nc(Cc1cccs1)n2[C@@H]1CCCC[C@H]1C)C(=O)O` [Example 92, (2S,3S)-3-Methyl-2-{[1-((1R,2R)-2-methyl-cyclohexyl)-2-thiophen-2-ylmethyl-1H-benzoimidazole-5-carbonyl]-amino}-pentanoic acid], the pEC50 was > 7.39.

`CC(C)C[C@H](NC(=O)c1ccc2c(c1)nc(Cc1ccco1)n2C1CCCCC1C)C(=O)O` (single isomer, unassigned) [Example 418]: the pEC50 is 6.61.

Regarding `CCC(CC)n1c(Cc2cccs2)nc2cc(C(=O)N[C@@H](CC(C)C)C(=O)N3CC[C@@H](N(C)C)C3)ccc21` [Example 260, 1-(1-Ethyl-propyl)-2-thiophen-2-ylmethyl-1H-benzoimidazole-5-carboxylic acid [(S)-1-((R)-3-dimethylamino-pyrrolidine-1-carbonyl)-3-methyl-butyl]-amide], the pEC50 is 6.77.

Consider `CCC(CC)n1c(Cc2cccs2)nc2cc(C(=O)N[C@@H](CC(C)C)C(=O)Nc3ccc(N(CC)CC)cc3)ccc21` [Example 242, 1-(1-Ethyl-propyl)-2-thiophen-2-ylmethyl-1H-benzoimidazole-5-carboxylic acid [(S)-1-(4-diethylamino-phenylcarbamoyl)-3-methyl-butyl]-amide], for which the pEC50 was 5.23.
